pIC50: −log10 of the molar value.
Assays:
HDAC 6 = target: T1, HDAC 6 (Homo sapiens, UniProt Q9UBN7); experiment: Test of HDAC activities, HDAC6 (fluorimetric); assay type: biochemical; parameters: purchased Calbiochem 382180; settings: samples at 0.1, 1, 10, 100, 1000 nM; 37° C. 60 minutes; fluorescence Ex 390, Em 460; read-out: HDAC inhibitory activities, HDAC6
T1 sequence (Q9UBN7 1-1215): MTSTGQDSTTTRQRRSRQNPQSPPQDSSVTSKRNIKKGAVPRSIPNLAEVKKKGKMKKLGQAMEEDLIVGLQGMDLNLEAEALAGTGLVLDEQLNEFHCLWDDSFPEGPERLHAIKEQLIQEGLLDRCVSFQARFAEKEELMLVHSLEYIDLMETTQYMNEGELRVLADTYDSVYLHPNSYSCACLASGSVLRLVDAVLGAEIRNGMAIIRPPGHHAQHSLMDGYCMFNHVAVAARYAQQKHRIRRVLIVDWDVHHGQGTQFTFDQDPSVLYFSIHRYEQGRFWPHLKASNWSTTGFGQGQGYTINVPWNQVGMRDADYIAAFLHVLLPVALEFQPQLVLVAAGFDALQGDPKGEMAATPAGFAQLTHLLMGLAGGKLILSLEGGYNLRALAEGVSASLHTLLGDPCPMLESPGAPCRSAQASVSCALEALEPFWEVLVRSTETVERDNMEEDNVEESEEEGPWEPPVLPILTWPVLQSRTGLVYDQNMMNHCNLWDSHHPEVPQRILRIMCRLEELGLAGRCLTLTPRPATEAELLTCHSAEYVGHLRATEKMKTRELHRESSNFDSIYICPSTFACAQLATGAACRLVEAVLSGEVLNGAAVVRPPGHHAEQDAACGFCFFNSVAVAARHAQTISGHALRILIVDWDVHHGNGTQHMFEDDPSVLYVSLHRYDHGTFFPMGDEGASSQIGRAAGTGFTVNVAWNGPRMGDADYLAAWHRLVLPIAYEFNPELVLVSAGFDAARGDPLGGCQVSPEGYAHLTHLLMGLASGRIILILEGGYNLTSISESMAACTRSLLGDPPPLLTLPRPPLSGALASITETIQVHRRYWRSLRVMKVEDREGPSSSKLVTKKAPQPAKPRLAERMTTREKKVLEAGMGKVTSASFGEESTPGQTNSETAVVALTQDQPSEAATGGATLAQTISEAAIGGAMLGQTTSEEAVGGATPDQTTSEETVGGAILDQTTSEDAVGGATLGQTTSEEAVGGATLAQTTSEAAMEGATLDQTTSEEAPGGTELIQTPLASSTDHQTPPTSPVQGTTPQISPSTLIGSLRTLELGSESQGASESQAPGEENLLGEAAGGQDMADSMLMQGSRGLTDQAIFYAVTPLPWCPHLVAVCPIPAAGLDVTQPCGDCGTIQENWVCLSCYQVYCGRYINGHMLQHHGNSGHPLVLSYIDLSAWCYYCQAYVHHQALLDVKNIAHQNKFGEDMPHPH
Outline: (§1)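 HDAC1 tested at 100, 1000 and 10000 nM; recombinant human HDAC6 at 0.1, 1, 10, 100 and 1000 nM. Reaction 60 min at 37° C, then developer for 30 min at 37° C; fluorescence read at Ex 390/Em 460.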

[1] = tested on: adjuvant-induced arthritis models; experiment: Adjuvant-induced arthritis models; assay type: in vivo, Lewis rat; settings: for clinical score: intraperitoneally, vehicle group 4.2
Protocol: Complete Freund's Adjuvant (Chondrex) containing 10 mg/mL Heat killed mycobacteria toxin was sufficiently mixed, and then 100 μL was taken and intradermally injected into the upper part of the tail of Lewis rat to induce arthritis. After 10 days, the length of the ankle circumference of rats was measured, and then the rats were grouped and used in the experiment. Each compound was intraperitoneally injected twice a day. The clinical score, the length of the ankle circumference, and the weight were measured twice a week after the administration of the compounds. The clinical scores were assigned from 0 to 4 based on the thesis of Woods, etc. (J. Immunology, 1214-1222, 2001), and the total clinical score was determined by evaluating the feet of each rat and summing up the scores (normal: 0, most severe edema: 16). The length of the ankle circumference was calculated based on the formula of 2×3.14(√(a^2+b^2/2)) after measuring top-bottom sides (a) of the foot and lateral sides (b) of the foot. The final value was determined by averaging the calculated values of each foot.

HDAC1 = HDAC1 (Homo sapiens, UniProt Q13547); experiment: Test of HDAC activities, HDAC1 Fluorimetric Drug Discovery Assay Kit; assay type: biochemical; parameters: purchased Enzolifesciences BML-AK511; settings: samples at 100, 1000, 10000 nM; 37° C. 60 minutes; fluorescence Ex 390, Em 460; read-out: HDAC inhibitory activities, HDAC1
Outline: as §1

Chain of HDAC1 (Q13547 whole entry): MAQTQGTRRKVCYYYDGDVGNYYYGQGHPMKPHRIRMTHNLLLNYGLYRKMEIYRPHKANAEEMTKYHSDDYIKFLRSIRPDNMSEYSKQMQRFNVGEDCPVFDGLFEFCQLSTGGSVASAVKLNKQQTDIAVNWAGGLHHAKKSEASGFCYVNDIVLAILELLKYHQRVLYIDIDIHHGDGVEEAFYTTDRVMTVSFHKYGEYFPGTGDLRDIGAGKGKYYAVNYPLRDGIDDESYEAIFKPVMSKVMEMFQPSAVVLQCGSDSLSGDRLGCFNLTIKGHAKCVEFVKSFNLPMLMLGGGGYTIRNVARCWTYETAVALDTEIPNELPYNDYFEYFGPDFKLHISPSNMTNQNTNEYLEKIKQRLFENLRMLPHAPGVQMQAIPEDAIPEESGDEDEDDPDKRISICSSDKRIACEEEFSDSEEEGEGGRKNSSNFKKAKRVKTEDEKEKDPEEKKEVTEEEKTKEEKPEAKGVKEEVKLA

Structure (SMILES) | pIC50 (HDAC 6) | clinical score ([1]; 25 mg/kg twice a day) | clinical score ([1]; 50 mg/kg twice a day) | improvement compared with MTX used as the control group ([1]; 25 and 50 mg/kg twice a day) | arthritis symptoms improved by ([1]; 25 and 50 mg/kg twice a day, versus vehicle group) | pIC50 (HDAC1)
CCN1CCN(C(=O)N(Cc2ccc(C(=O)NO)cc2)c2cccc(C(F)(F)F)c2)CC1 [Compound 461, 4-ethyl-N-(4-(hydroxycarbamoyl)benzyl)-N-(3-(trifluoromethyl)phenyl)piperazine-1-carboxamide] | 9.00 | 1.9 | 1.3 | higher than that of MTX | 50 to 70% | 5.57
CC(C)(F)CN1CCN(C(=O)N(Cc2ccc(C(=O)NO)cc2)c2cccc(CF)c2)CC1 [Compound 766, 4-(2-fluoro-2-methylpropyl)-N-(3-(fluoromethyl)phenyl)-N-(4-(hydroxycarbamoyl)benzyl)piperazine-1-carboxamide] | 8.52 | – | – | – | – | 6.08
O=C(NO)c1ccc(CN(C(=O)N2CCOCC2)c2ccccc2OC(F)(F)F)cc1 [Compound 771, N-(4-(hydroxycarbamoyl)benzyl)-N-(2-(trifluoromethoxy)phenyl)morpholine-4-carboxamide] | 7.19 | – | – | – | – | < 5.00
O=C(NO)c1ccc(CN(C(=O)N2CCOCC2)c2ccc(OC(F)(F)F)cc2)cc1 [Compound 772, N-(4-(hydroxycarbamoyl)benzyl)-N-(4-(trifluoromethoxy)phenyl)morpholine-4-carboxamide] | 8.60 | – | – | – | – | 6.46
O=C(NO)c1ccc(CN(C(=O)N2CCOCC2)c2cccc(OC(F)(F)F)c2)cc1 [Compound 773, N-(4-(hydroxycarbamoyl)benzyl)-N-(3-(trifluoromethoxy)phenyl)morpholine-4-carboxamide] | 8.55 | – | – | – | – | 6.51
COc1ccc(C(F)(F)F)cc1N(Cc1ccc(C(=O)NO)cc1)C(=O)N1CCOCC1 [Compound 774, N-(4-(hydroxycarbamoyl)benzyl)-N-(2-methoxy-5-(trifluoromethyl)phenyl)morpholine-4-carboxamide] | 6.92 | – | – | – | – | 4.91
O=C(NO)c1ccc(CN(C(=O)N2CCOCC2)c2cc(C(F)(F)F)ccc2Cl)cc1 [Compound 776, N-(2-chloro-5-(trifluoromethyl)phenyl)-N-(4-(hydroxycarbamoyl)benzyl)morpholine-4-carboxamide] | 7.50 | – | – | – | – | 5.70
O=C(NO)c1ccc(CN(C(=O)N2CCOCC2)c2cccc(C(F)(F)F)n2)cc1 [Compound 778, N-(4-(hydroxycarbamoyl)benzyl)-N-(6-(trifluoromethyl)pyridin-2-yl)morpholine-4-carboxamide] | 7.96 | – | – | – | – | 5.19
O=C(NO)c1ccc(CN(C(=O)N2CCOCC2)c2cccc(F)c2F)cc1 [Compound 791, N-(2,3-difluorophenyl)-N-(4-(hydroxycarbamoyl)benzyl)morpholine-4-carboxamide] | 8.96 | – | – | – | – | 6.23
CCN1[C@H](C)CN(C(=O)N(Cc2ccc(C(=O)NO)cc2)c2cccc(C(F)(F)F)c2)C[C@@H]1C [Compound 797, (3S,5R)-4-ethyl-N-(4-(hydroxycarbamoyl)benzyl)-3,5-dimethyl-N-(3-(trifluoromethyl)phenyl)piperazine-1-carboxamide] | 8.70 | – | – | – | – | 5.80
CC1CN(C(=O)N(Cc2ccc(C(=O)NO)cc2)c2cccc(OC(F)(F)F)c2)CC(C)O1 (stereo not shown) [Compound 800, N-(4-(hydroxycarbamoyl)benzyl)-2,6-dimethyl-N-(3-(trifluoromethoxy)phenyl)morpholine-4-carboxamide] | 7.11 | – | – | – | – | 6.20
CC1CN(C(=O)N(Cc2ccc(C(=O)NO)cc2)c2ccccc2OC(F)(F)F)CC(C)O1 (stereo not shown) [Compound 801, N-(4-(hydroxycarbamoyl)benzyl)-2,6-dimethyl-N-(2-(trifluoromethoxy)phenyl)morpholine-4-carboxamide] | 7.22 | – | – | – | – | 4.83
C[C@@H]1CN(C(=O)N(Cc2ccc(C(=O)NO)cc2)c2cccc(C(F)(F)F)c2)C[C@H](C)N1Cc1ccccc1 [Compound 802, (3S,5R)-4-benzyl-N-(4-(hydroxycarbamoyl)benzyl)-3,5-dimethyl-N-(3-(trifluoromethyl)phenyl)piperazine-1-carboxamide] | 8.03 | – | – | – | – | 5.80
C[C@@H]1CN(C(=O)N(Cc2ccc(C(=O)NO)cc2)c2cccc(C(F)(F)F)c2)C[C@H](C)N1CC(F)(F)C(F)(F)F [Compound 803, (3S,5R)—N-(4-(hydroxycarbamoyl)benzyl)-3,5-dimethyl-4-(2,2,3,3,3-pentafluoropropyl)-N-(3-(trifluoromethyl)phenyl)piperazine-1-carboxamide] | 6.67 | – | – | – | – | 5.27
CCN1CCN(C(=O)N(Cc2ccc(C(=O)NO)cc2)c2cccc(C(F)(F)F)n2)CC1 [Compound 826, 4-ethyl-N-(4-(hydroxycarbamoyl)benzyl)-N-(6-(trifluoromethyl)pyridin-2-yl)piperazine-1-carboxamide] | 7.93 | – | – | – | – | 5.73
CC1CN(C(=O)N(Cc2ccc(C(=O)NO)cc2)c2cccc(C(F)(F)F)n2)CC(C)O1 (stereo not shown) [Compound 827, N-(4-(hydroxycarbamoyl)benzyl)-2,6-dimethyl-N-(6-(trifluoromethyl)pyridin-2-yl)morpholine-4-carboxamide] | 7.61 | – | – | – | – | 5.76
O=C(NO)c1ccc(CN(C(=O)N2CCCCC2)c2cccc(C(F)(F)F)n2)cc1 [Compound 828, N-(4-(hydroxycarbamoyl)benzyl)-N-(6-(trifluoromethyl)pyridin-2-yl)piperidine-1-carboxamide] | 7.44 | – | – | – | – | 5.38
O=C(NO)c1ccc(CN(C(=O)N2CC[C@H](F)C2)c2cccc(C(F)(F)F)n2)cc1 [Compound 829, (S)-3-fluoro-N-(4-(hydroxycarbamoyl)benzyl)-N-(6-(trifluoromethyl)pyridin-2-yl)pyrrolidine-1-carboxamide] | 8.09 | – | – | – | – | 5.80

Reference: patent US9878986B2, “Compounds for selective histone deacetylase inhibitors, and pharmaceutical composition comprising the same” (CHONG KUN DANG PHARMACEUTICAL CORP., priority 2013, dated 2018)
